# In PubChem BioAssay AID179 (DTP/NCI, 2004):
# Active and inactive are the calls of the source.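 How the source made its calls: active means compounds giving half or more protection of infected cells from virus-caused growth loss, again on retest; inactive means the rest.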 Where a SMILES comes first, the peptide text is derived from it. The star is where a group is joined. Cbz = O=C(OCc1ccccc1)*; OtBu = CC(C)(C)O*
# Test system: CEM cells HIV-1 protection, formazan growth assay
# Assay: NCI AIDS Antiviral Assay
# Settings: for IC50: measured here: growth of uninfected CEM cells
# In short: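 Steps: treat uninfected and HIV-1-infected human CEM cells at five drug levels; quantify growth by soluble formazan; retest any compound reaching 50% protection; classify actives from the retest.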
Compound,EC50 [µM],IC50 [µM],outcome
O=C1/C(=C\c2cccc(Oc3ccccc3)c2)S(=O)(=O)C(c2ccccc2)N1c1cccc([N+](=O)[O-])c1 (configuration not stated),> 200,9.55,–
CC1C2CC3(c4ccccc4)CC(/C2=N\O)/C(=N/O)C1/C3=C\O (configuration not stated),> 200,> 200,–
CCOC(=O)C(=O)NCCCN1CCOCC1,> 1020,> 1020,–
O=[N+]([O-])c1ccc2c(c1)C(N1CCN(CCO)CC1)Cc1ccc(F)cc1S2 (configuration not stated),> 200,22.4,–
CCOC(=O)c1cnc2ccc(C)cn2c1=O,–,–,inactive
Clc1ccc(SSc2ccccc2)cc1,–,–,inactive
CC(=O)NC(CCC(=O)c1ccc(Oc2ccccc2)cc1)C(=O)O (configuration not stated),> 200,> 200,–
CCOC(=O)c1sc2c(c1O)c(=O)n(-c1ccccc1)c(=S)n2-c1ccccc1,> 17,> 17,–
Cc1cc(C)nc(NS(=O)(=O)c2ccc(NC(=O)NC(F)(F)F)cc2)n1,> 200,> 200,–
NS(=O)(=O)c1nnc(NC(=O)/C=C/C(=O)O)s1,> 200,> 200,–
C=C(C)C(O)C(O)c1c(OC)ccc2ccc(=O)oc12 (configuration not stated),> 174,> 174,–
CCOC(=O)c1c2ccc(/C=C/C(=O)OC)ccc-2c(C(=O)OCC)c1N,> 19.5,> 19.5,–
CCCCCCCCOP(=O)(/C=C/c1ccccc1)OCCCCCCCC,> 6.61,> 6.61,–
CCCCN(CCCC)C(=O)C(=O)C(C)C(=O)CC (configuration not stated),–,–,inactive
CC(=O)NNc1nc(C)c(C(/C=C/c2ccc3c(c2)OCO3)=N/Nc2ccccc2)s1,> 56.2,> 56.2,–
CCCCCCCCCCCCCC(=O)CBr,–,–,inactive
O=c1c2ccccc2oc2ccccc12 (tested in a mixture with another compound),> 11,0.776,–
CCCCCCCN1C(=O)C(O)(c2ccc(C3(O)C(=O)N(CCCCCCC)c4ccccc43)s2)c2ccccc21 (configuration not stated),> 200,11.2,–
Cc1cn(C2CC(O)C(CN=[N+]=[N-])O2)c(=O)[nH]c1=O (configuration not stated),> 933,> 933,–
CC1=C(C(=O)CC(=O)C(=O)Nc2cc(C)ccc2C)Sc2ccccc2N1,> 10,> 10,–
S=C1CC(c2ccc(Cl)cc2)Sc2ccccc2N1 (configuration not stated),> 200,138,–
CCN(CC)c1c(N(CC)CC)c(=O)c1=O,> 200,6.03,–
COc1ccc(/C=N/N=C(\N)NO)c(O)c1,> 200,10.5,–

Compound,EC50 [µM],IC50 [µM],outcome
COc1c(Sc2ccccc2)cc(Sc2ccccc2)c2cccnc12,–,–,inactive
COc1ccc(-c2nc(-c3cnccn3)n(C3OC(CO)C(O)C(O)C3O)n2)cc1 (configuration not stated),> 200,> 200,–
O=C1C(=O)N(c2ccc(Cl)cc2)C(=O)C(=Nc2cccc3c(=O)[nH][nH]c(=O)c23)C1c1nc2ccccc2o1 (configuration not stated),–,–,inactive
Cc1cc(=O)c2c(O)c3c(O)cc(O)c4c5c(O)cc(O)c6c(O)c7c(=O)cc(C)c8c1c2c(c34)c(c65)c78,> 100,–,–
CSc1c(C#N)c(=O)[nH]c2n[nH]c(C)c12,> 200,> 200,–
Cc1cc2c(=O)cc(-c3ccc(Cl)cc3Cl)oc2c(C(=O)O)c1C,–,–,inactive
CC1(C)C2CCC1(C)[C@H](O)[C@H]2Nc1cc(C(F)(F)F)cc(C(F)(F)F)c1 (some centres not stated),> 20,0.513,–
Clc1ccccc1-c1nc2ccc(C34CC5CC(CC(C5)C3)C4)cc2[nH]1,> 200,162,–
COC(=O)C1C(NCc2ccccc2)=CC(C)(C)C(C(=O)OC)C1c1ccccc1 (configuration not stated),> 200,166,–
Clc1ccc(-c2nnc(-c3nn(-c4ccccc4)c4nc5ccccc5nc34)o2)cc1,> 1.29,> 1.29,–
CC(C)CC(NC(=O)C(Cc1ccccc1)NC(=O)C1CCCN1C(=O)OCc1ccccc1)C(=O)OC(C)(C)C (stereo not drawn) (Cbz-Pro-Phe-Leu-OtBu; configuration not given here),> 6.61,> 6.61,–
CCOC(=O)c1c(N)nnc(-c2ccccc2)c1-c1ccccc1,> 200,129,–
OC(C#CCN1CCCC1)(c1ccccc1)c1ccccc1Cl (configuration not stated),> 200,70.8,–
COC1=CC(=O)c2nc(C)ccc2C1=O,–,–,inactive
CCC1(CC)C(=O)N(C(=O)c2ccccc2)N(C(=O)c2ccc(Cl)cc2)C1=O,> 200,50.1,–
Cc1cn(C2CC(N)C(C(=O)NCC(=O)O)O2)c(=O)[nH]c1=O (configuration not stated),> 200,> 200,–
NNC(=O)N/N=C1\C(=O)N(c2ccc(Cl)c(Cl)c2)C(=O)C(=O)C1c1nc2ccccc2s1 (configuration not stated),–,–,inactive
COc1ccc(C(=O)O)c2c(=O)c3cccnc3[nH]c12,–,–,inactive
CCOC(=O)NC1C2CC(=O)C(O2)C1OCc1ccccc1 (configuration not stated),> 309,295,–
COc1ccc(C2Oc3cc(OC)c(O)c(C)c3[C@H]2C)cc1 (some centres not stated),> 45.7,30.9,–
C=CCNC(=S)N/C=C(/C#N)C(=O)OC,–,–,inactive
CCCC/C=C\CCCCCCCCCC1=C(O)C(=O)C=C(OC)C1=O,> 55,9.33,–
O=C(O)CSC(=S)NCCNC(=S)SCC(=O)O,> 95.5,72.4,–

Compound,EC50 [µM],IC50 [µM],outcome
Cc1cc(-c2ccc(C(=O)O)[nH]2)on1,> 200,69.2,–
Cc1ccc(N2C(=O)/C(=C3\Sc4c(nc(C)n(C)c4=O)N3c3ccccc3)SC2=S)cc1,> 3.02,> 3.02,–
Cc1ccc(OC2CC(n3cnc4c(=O)[nH]c(Br)nc43)OC2Oc2ccc(C)cc2)cc1 (configuration not stated),> 200,25.1,–
CCCCCC(/C=N/N)C(O)(C(F)(F)F)C(F)(F)F (configuration not stated),> 200,1.48,–
O=C1NC(=O)C23C(=O)NC(=O)C12C1C=CC3CC1 (configuration not stated),> 200,> 200,–
Clc1ccc(C(SCc2ccccc2)SCc2ccccc2)cc1,> 200,> 200,–
Cc1cc(C#N)c[n+](C)c1,> 200,> 200,–
COC(=O)C1=C(C(=O)OC)C2C3CC4C(C13)C42,> 200,> 200,–
Cc1cn(CCCCCCOC(=O)NC(CCCNC(N)=O)C(=O)O)c(=O)[nH]c1=O (configuration not stated),> 200,> 200,–
O=C1c2ccncc2C(=O)c2c(O)ccc(O)c21,> 6.03,3.24,–
COC(=O)[C@@H]1c2cc3c(c(O)c2[C@@H](OC2OC(C)C(OC)C(C)(OC)C2OC)C[C@]1(C)O)C(=O)c1c(O)cc2c(c1C3=O)O[C@H]1O[C@]2(C)[C@H](O)[C@@H](N(C)C)[C@@H]1O (some centres not stated),–,–,inactive
Brc1ccc(/C=C2\C=Cc3ccccc32)cc1,> 25.7,> 25.7,–
O/N=C1/CCCCCC1NO (configuration not stated),> 200,> 200,–
CC1=NNC(=O)C1C1CC(c2c[nH]c3ccccc23)=NNC1=S (configuration not stated),> 100,> 100,–
O=C(O)c1nc2ccc(C(F)(F)F)cc2nc1NCc1ccc(F)cc1,> 200,15.8,–
CC1(C)OC(=O)C(C#N)=C1C[n+]1ccccc1,> 263,> 263,–
COc1cc2c(cc1OC)C(N(C)C)C(c1ccccc1)=C2Cl (configuration not stated),> 55,33.1,–
Cc1ccc(NC(=O)CC(=O)N2N=C(N(c3ccccc3)c3ccccc3)CC2c2ccccc2)cc1 (configuration not stated),–,–,inactive
CC1(C)CC2CCC(O)C2C(CCO)N1 (configuration not stated),> 200,> 200,–
O=C1CCSSCCC(=O)NCCCN1,> 40.7,> 40.7,–
OCC(O)C(OC1OC(CO)C(O)C(O)C1O)c1nn(-c2ccc(Cl)cc2)c2nc3cc(Cl)ccc3nc12 (configuration not stated),–,–,inactive
CSC(=S)c1ccc(C(=S)SC)cc1,–,–,inactive
COC(=O)C1=COC(C)C2CN3CCC4(C(=O)Nc5ccccc54)C3CC12 (configuration not stated),–,–,inactive

Compound,EC50 [µM],IC50 [µM],outcome
N#CC(NC12CC3CC(CC(C3)C1)C2)c1ccccc1 (configuration not stated),–,–,inactive
Fc1ccc(NC(=S)Nc2ccccn2)cc1,> 158,129,–
COC1/C=C/OC2(C)Oc3c(C)c(O)c4c(O)c(c(/C=N/N5C(C)CN(Cc6ccc([N+](=O)[O-])cc6)CC5C)c(O)c4c3C2=O)NC(=O)/C(C)=C\C=C\C(C)C(O)C(C)C(O)C(C)C(OC(C)=O)C1C (configuration not stated),> 200,7.59,–
CCc1cc2c(c3c1CCCC3=O)CC1(Cc3ccc(C(=O)OC)cc3C1)C2 (configuration not stated),> 200,36.3,–
O=C1OCCN1c1ccccc1,> 1100,> 1100,–
CN(C)CC1Cc2ccsc2C1=O (configuration not stated),> 155,2.63,–
CC(C)(C)C1CC[C@H]2c3c([nH]c4ccc(Br)cc34)[C@H]3C(=O)N(c4ccccc4)C(=O)[C@H]3[C@H]2C1 (some centres not stated),> 7.24,> 7.24,–
CCN(CC)Cc1nc2sc3c(c2c(=O)n1-c1ccccc1)CCCC3,> 200,39.8,–
CC1=N/C(=C\c2ccc(Cl)cc2)C(=O)O1,> 32.4,> 32.4,–
CCCCCC=C(c1cc(Cl)c(OC)c(C(=O)NC)c1)c1cc(Cl)c(OC)c(C(=O)NC)c1,> 38,20.4,–
N=c1ncn(Cc2ccccc2)c2nc[nH]c12,> 200,> 200,–
N#C/C(=C/c1ccccc1)c1ccccc1,> 200,39.8,–
Nc1nc(=O)n(C2OC(CO)CC2F)cc1Cl (configuration not stated),> 191,> 191,–
CC(C)=CCN1Cc2c(F)ccc3[nH]c(=S)n(c23)CC1C (configuration not stated),0.0398,70.8,–
CC(C)C(=O)C(C)(C)C(=O)C(C)(C)C(=O)OC(C)(C)C,> 200,> 200,–
N#C/C(=C\c1ccccc1[N+](=O)[O-])c1ccccc1,> 5.75,> 5.75,–
Cc1ccc(S(=O)(=O)n2ccnc2)cc1,> 200,> 200,–
CCCCN(CCCC)CCNc1ccc(Cl)c2oc3cc(C)ccc3c(=O)c12,> 21.9,> 21.9,–
NC(Cc1cc(O)c(O)c(S(=O)(=O)c2ccccc2)c1)C(=O)O (configuration not stated),–,–,inactive
CS(=O)(=O)Sc1ccc(Cl)cc1,> 132,9.33,–
CCSc1nc2n(c(=S)n1)CCN2C,> 708,138,–
O=C1OC(=O)C2C3C=CC(C12)C1C2C=CC2C31 (configuration not stated),–,–,inactive
